The values that follow come from patent US7741354B2, “Inhibitors of glutaminyl cyclase” (Probiodrug AG, priority 2006, dated 2010).

Sequence of hQC (Q16769 29-361): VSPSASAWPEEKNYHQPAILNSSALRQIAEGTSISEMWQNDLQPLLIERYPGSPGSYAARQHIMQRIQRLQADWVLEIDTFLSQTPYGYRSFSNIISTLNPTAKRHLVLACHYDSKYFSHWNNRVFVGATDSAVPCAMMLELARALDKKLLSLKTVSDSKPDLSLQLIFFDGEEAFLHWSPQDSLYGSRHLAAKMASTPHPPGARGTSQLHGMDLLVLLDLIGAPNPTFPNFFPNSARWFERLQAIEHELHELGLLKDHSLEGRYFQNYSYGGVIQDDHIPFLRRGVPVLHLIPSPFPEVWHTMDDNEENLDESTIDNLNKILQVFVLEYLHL

The target in the first experiment is hQC (Homo sapiens, UniProt Q16769). The experiment in a line: Fluorometric (fluorescent) assay of hQC inhibition, IC50. In kind it is biochemical. To be noted: hQC inhibition; read-out: IC50. Put shortly:
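QC activity followed at 30° C via pyroglutamyl aminopeptidase-coupled release of fluorophore, using either H-Gln-βNA (0.2 mM; ex/em 320/410 nm; 0.2 M Tris/HCl pH 8.0, 20 mM EDTA) or H-Gln-AMC (ex/em 380/460 nm; 0.05 M Tris/HCl pH 8.0, 5 mM EDTA).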
As to `COc1ccc(C(Nc2ccc3[nH]cnc3c2)c2nnnn2Cc2cccnc2)cc1Br` (centres unmarked) [compound 142, (1H-Benzoimidazol-5-yl)-[(3-bromo-4-methoxy-phenyl)-(1-pyridin-3-ylmethyl-1H-tetrazol-5-yl)-methyl]-amine], the IC50 (as a rule, the point on the concentration scale where inhibition reaches its midpoint) was determined as 0.4 µM.
Take `O=C(Cn1nnnc1C(Nc1ccc2[nH]cnc2c1)c1cccs1)N1CCc2ccccc2C1` (centres unmarked) [compound 120, 2-{5-[(1H-Benzoimidazol-5-ylamino)-thiophen-2-yl-methyl]-tetrazol-1-yl}-1-(3,4-dihydro-1H-isoquinolin-2-yl)-ethanone]: the IC50 stood at 8.5 µM.
For `COc1ccccc1C(Nc1ccc2[nH]cnc2c1)c1nnnn1Cc1ccccc1` (centres unmarked) [compound 151], the IC50 is 5.8 µM.
The same measure, in the same setting: the value for `c1cncc(Cn2nnnc2C(Nc2ccc3[nH]cnc3c2)c2ccc3nsnc3c2)c1` (centres unmarked) [compound 185] was 6.7 µM; that for `CCOC(=O)C1CCCCC1n1nnnc1C(Nc1ccc2[nH]cnc2c1)c1ccc(CC)cc1` (centres unmarked) [compound 168] was 5.8 µM.
On the same count and under the same terms, the value for `c1ccc(C(c2ccccc2)n2nnnc2C(Nc2ccc3[nH]cnc3c2)c2cnc3ccccc3c2)cc1` (centres unmarked) [compound 126, [(1-Benzhydryl-1H-tetrazol-5-yl)-quinolin-3-yl-methyl]-(1H-benzoimidazol-5-yl)-amine] was 4.9 µM; that for `OCc1ccc(C(Nc2ccc3[nH]cnc3c2)c2nnnn2Cc2ccc(Cl)cc2)o1` (centres unmarked) [compound 121, (5-{(1H-Benzoimidazol-5-ylamino)-[1-(4-chloro-benzyl)-1H-tetrazol-5-yl]-methyl}-furan-2-yl)-methanol] was 4.9 µM.
Same read-out and setting: next, `CC(C)(C)n1nnnc1C(Nc1ccc2[nH]cnc2c1)c1csc2ccccc12` (centres unmarked) [compound 123]: 8.5 µM; `CC(C)(C)c1ccc(-n2nnnc2C(Nc2ccc3[nH]cnc3c2)c2ccc3nsnc3c2)cc1` (centres unmarked) [compound 117]: 4 µM.
As for `O=C(Cn1nnnc1C(Nc1ccc2[nH]cnc2c1)c1ccc(Br)cc1)NCCc1c[nH]c2ccccc12` (centres unmarked) [compound 200, 2-{5-[(1H-Benzoimidazol-5-ylamino)-(4-bromo-phenyl)-methyl]-tetrazol-1-yl}-N-[2-(1H-indol-3-yl)-ethyl]-acetamide], the IC50 is 2.2 µM.
On to `C/C=C/C=C/C(Nc1ccc2[nH]cnc2c1)c1nnnn1Cc1cccnc1` (centres unmarked) [compound 173, (1H-Benzoimidazol-5-yl)-[(2E,4E)-1-(1-pyridin-3-ylmethyl-1H-tetrazol-5-yl)-hexa-2,4-dienyl]-amine], for which the IC50 stood at 8.5 µM.
On the same count and under the same terms, the value for `Clc1ccccc1Cn1nnnc1C(Nc1ccc2[nH]cnc2c1)c1ccc2nsnc2c1` (centres unmarked) [compound 205] was 2.2 µM; that for `CCOC(=O)C1CCCCC1n1nnnc1C(CC(C)c1ccc(C)o1)Nc1ccc2[nH]cnc2c1` (centres unmarked) [compound 202] was 6.7 µM; that for `c1nc2cc(NC(c3ccc4c(c3)OCO4)c3nnnn3CC3CCCO3)ccc2[nH]1` (centres unmarked) [compound 118] was 6.7 µM.
`O=C(Cn1nnnc1C(Nc1ccc2[nH]cnc2c1)c1ccc(Br)cc1)N1CCc2ccccc2C1` (centres unmarked) [compound 199, 2-{5-[(1H-Benzoimidazol-5-ylamino)-(4-bromo-phenyl)-methyl]-tetrazol-1-yl}-1-(3,4-dihydro-1H-isoquinolin-2-yl)-ethanone]: the IC50 came to 2.2 µM.
Turning to `c1ccc(Oc2ccc(-n3nnnc3C(Nc3ccc4[nH]cnc4c3)c3ccc4c(c3)OCO4)cc2)cc1` (centres unmarked) [compound 139, {Benzo[1,3]dioxol-5-yl-[1-(4-phenoxy-phenyl)-1H-tetrazol-5-yl]-methyl}-(1H-benzoimidazol-5-yl)-amine], the IC50 is 4 µM.
Still for that read-out and setting: next, `O=[N+]([O-])c1cc(C(Nc2ccc3[nH]cnc3c2)c2nnnn2Cc2ccccc2Cl)ccc1Cl` (centres unmarked) [compound 148, (1H-Benzoimidazol-5-yl)-[[1-(2-chloro-benzyl)-1H-tetrazol-5-yl]-(4-chloro-3-nitro-phenyl)-methyl]-amine]: 1.3 µM; `O=[N+]([O-])c1cc(C(Nc2ccc3[nH]cnc3c2)c2nnnn2Cc2ccc(Cl)cc2)ccc1Cl` (centres unmarked) [compound 197, (1H-Benzoimidazol-5-yl)-[[1-(4-chloro-benzyl)-1H-tetrazol-5-yl]-(4-chloro-3-nitro-phenyl)-methyl]-amine]: 2.2 µM; `CCOC(=O)C1CCCCC1n1nnnc1C(Nc1ccc2[nH]cnc2c1)c1cc(Cl)ccc1O` (centres unmarked) [compound 169, 2-{5-[(1H-Benzoimidazol-5-ylamino)-(5-chloro-2-hydroxy-phenyl)-methyl]-tetrazol-1-yl}-cyclohexacar-boxylic acid ethyl ester]: 7.6 µM.
Turning to `c1ccc(Cn2nnnc2C(Nc2ccc3[nH]cnc3c2)c2ccc3nsnc3c2)cc1` (centres unmarked) [compound 147], the concentration for half-maximal inhibition (IC50) came to 1.3 µM.
On the same count and under the same terms, next, `Brc1cc(Br)cc(C(Nc2ccc3[nH]cnc3c2)c2nnnn2CCC(c2ccccc2)c2ccccc2)c1` (centres unmarked) [compound 188, (1H-Benzoimidazol-5-yl)-{(3,5-dibromo-phenyl)-[1-(3,3-diphenyl-propyl)-1H-tetrazol-5-yl]-methyl}-amine]: 4 µM.

Still in this experiment, the particulars now being: purified compound from preparative synthesis; fluorescent assay; read-out: IC50 hQC.
Turning to `C1=COC(C(NCCCn2ccnc2)c2nnnn2C2CCCC2)CC1` (centres unmarked) [Compound 28, [(1-Cyclopentyl-1H-tetrazol-5-yl)-(3,4-dihydro-2H-pyran-2-yl)-methyl]-(3-imidazol-1-yl-propyl)-amine], the IC50 stood at 3.47 µM.

The same experiment, now with this note: read-out: IC50.
For `CCCC(Nc1ccc2[nH]cnc2c1)c1nnnn1Cc1ccccc1` (centres unmarked) [compound 110, (1H-Benzoimidazol-5-yl)-[1-(1-benzyl-1H-tetrazol-5-yl)-butyl]-amine], the IC50 worked out at 5.8 µM.
Same read-out and setting: the value for `CC(c1ccccc1)C(Nc1ccc2[nH]cnc2c1)c1nnnn1CC1CCCO1` (centres unmarked) [compound 100, (1H-Benzoimidazol-5-yl)-{2-phenyl-1-[1-(tetrahydro-furan-2-ylmethyl)-1H-tetrazol-5-yl]-propyl}-amine] was 7.6 µM.
On the same count and under the same terms, next, `c1ccc2oc(C(Nc3ccc4[nH]cnc4c3)c3nnnn3CC3CCCO3)cc2c1` (centres unmarked) [compound 101, {Benzofuran-2-yl-[1-(tetrahydro-furan-2-ylmethyl)-1H-tetrazol-5-yl]-methyl}-(1H-benzoimidazol-5-yl)-amine]: 4.9 µM; `C1=COC(C(NCCCn2ccnc2)c2nnnn2C2CCCC2)CC1` (centres unmarked) [Compound 28, [(1-Cyclopentyl-1H-tetrazol-5-yl)-(3,4-dihydro-2H-pyran-2-yl)-methyl]-(3-imidazol-1-yl-propyl)-amine]: 0.4 µM.
Same read-out and setting: next, `CCOC(=O)C1CCCCC1n1nnnc1C(Nc1ccc2[nH]cnc2c1)c1ccc(Br)cc1` (centres unmarked) [compound 103]: 4.9 µM; `CN(C)CCn1nnnc1C(NCCCn1ccnc1)c1ccc2cccc(O)c2n1` (centres unmarked) [compound 37, 2-[[1-(2-Dimethylamino-ethyl)-1H-tetrazol-5-yl]-(3-imidazol-1-yl-propylamino)-methyl]-quinolin-8-ol]: 4.9 µM; `COCCn1nnnc1C(NCCCn1ccnc1)c1ccc2cccc(O)c2n1` (centres unmarked) [compound 40, 2-{(3-Imidazol-1-yl-propylamino)-[1-(2-methoxy-ethyl)-1H-tetrazol-5-yl]-methyl}-quinolin-8-ol]: 3.1 µM.
In the case of `COc1ccc(C(Nc2ccc3[nH]cnc3c2)c2nnnn2C2CCCCC2)cc1` (centres unmarked) [compound 72, (1H-Benzoimidazol-5-yl)-[(1-cyclohexyl-1H-tetrazol-5-yl)-(4-methoxy-phenyl)-methyl]-amine], the IC50 came to 2.2 µM.
The same measure, in the same setting: next, `COC(=O)Cn1nnnc1C(NCCCn1ccnc1)c1ccc2cccc(O)c2n1` (centres unmarked) [compound 52]: 4.9 µM; `C=CCn1nnnc1C(NCCCn1ccnc1)c1cc(C)ccc1O` (centres unmarked) [compound 44, 2-[(1-Allyl-1H-tetrazol-5-yl)-(3-imidazol-1-yl-propylamino)-methyl]-4-methyl-phenol]: 4.9 µM.
